Data reported in ChEMBL document CHEMBL1126530, “A concise enantioselective synthesis of rans-olefin dipeptide isosteres” (Bioorg Med Chem Lett, 1993).

What follows are molecules tested against Human immunodeficiency virus type 1 protease (Human immunodeficiency virus 1, UniProt Q72874) (assay: Inhibitory constant against HIV-1 protease).

First: COC(=O)[C@@H](NC(=O)[C@@H](/C=C/[C@@H](C(=O)N[C@H](C(=O)OC)C(C)C)C(C)C)Cc1ccccc1)C(C)C
Second: COC(=O)[C@@H](NC(=O)[C@@H](C)/C=C/[C@@H](Cc1ccccc1)C(=O)N[C@H](C(=O)OC)C(C)C)C(C)C
The Ki of the first is lower: 5 µM for the first, over 67 µM for the second.

Molecule COC(=O)[C@@H](NC(=O)[C@@H](/C=C/[C@H](C)C(=O)N[C@H](C(=O)OC)C(C)C)C(C)C)C(C)C has a Ki of over 67 µM.
